20 compounds from the SangsterLogP compilation can be followed below.

Data set [1] can be described thus: method code SF-HPLC, from DOI: 10.1016/0005-2728(88)90027-8, PMID: 3196713. Conditions: pH 2.2.

A word on the logP: it is a log measure of how a compound divides between an organic and an aqueous phase. As usually defined, the logD is lipophilicity at a set pH, counting ionised and neutral species.

The structures appear in SMILES notation.

Regarding `O=C(Nc1ccc(Br)cc1)c1ccccc1O`, the logP is 4.51.

The compound `Cc1cc([N+](=O)[O-])ccc1NC(=O)c1cc(Cl)cc(Cl)c1O` returned a logP of 4.51.

Consider `O=C(Nc1ccccc1Cl)c1ccccc1O`, for which the logD in data set [1] amounted to 4.35. Consider `O=C(Nc1ccc(F)cc1F)c1cc(Cl)cc(Cl)c1O`, for which the logP was found to be 4.55.

Turning to `O=C(Nc1ccc(F)cc1)c1cc(Cl)cc(Cl)c1O`, the logD in data set [1] was 4.76. On to `O=C(Nc1ccccc1)c1cc(Cl)ccc1O`, for which the logP was 3.98. As to `O=C(Nc1ccc(Cl)cc1[N+](=O)[O-])c1cc(Cl)cc(Cl)c1O`, the logP was 5.08. `O=C(Nc1ccc(Cl)cc1)c1cc(Cl)cc(Cl)c1O`: the logP came to 5.15. The logP values of the last two compounds are within 0.2 log units of each other. Still for that read-out and setting: as for `O=C(Nc1ccccc1[N+](=O)[O-])c1ccccc1O`, the figure is 2.87; as for `Cc1cc(Cl)ccc1NC(=O)c1ccccc1O`, 5.18. Take `O=C(Nc1ccc(Cl)cc1)c1ccccc1O`: the logP came out at 4.29. Regarding `Cc1ccccc1NC(=O)c1cc(Cl)ccc1O`, the logD in data set [1] was 4.21. `O=C(Nc1ccc(F)cc1F)c1cc(Br)cc(Br)c1O` yielded a logP of 4.99. As to `O=C(Nc1ccc(Cl)cc1Cl)c1ccccc1O`, the logP worked out at 5.49. As to `O=C(Nc1ccc(Cl)cc1[N+](=O)[O-])c1cc(Br)cc(Br)c1O`, the lipophilicity (logP) turned out to be 5.05. For the compound `Cc1cc(Cl)ccc1NC(=O)c1cc(F)ccc1O`, the logP came out at 4.89. `O=C(Nc1ccc(Cl)cc1[N+](=O)[O-])c1ccccc1O` yielded a logP of 4.02. Take `O=C(Nc1ccc(Cl)cc1)c1cc(Br)ccc1O`: the logP turned out to be 5.02. For the compound `O=C(Nc1ccccc1)c1cc(Cl)cc(Cl)c1O`, the logP turned out to be 4.01. On to `Cc1cc(Br)ccc1NC(=O)c1cc(F)ccc1O`, for which the logP amounted to 5.15.
